Experimental findings from ChEMBL document CHEMBL5727957, “1H-pyrazolo[4,3-b]pyridines as PDE1 inhibitors” (2020) are described below.

For assay [1], the target named is Dual specificity calcium/calmodulin-dependent 3',5'-cyclic nucleotide phosphodiesterase 1A (Homo sapiens, UniProt P54750). As to the kind of experiment: Inhibition Assay: PDE1A, PDE1B and PDE1C assays were performed as follows: the assays were performed in 60 μL samples containing a fixed amount of the PDE1 enzyme (sufficient to convert 20-25% of the cyclic nucleotide substrate), a buffer (50 mM HEPES pH 7.6; 10 mM MgCl2; 0.02% Tween20), 0.1 mg/ml BSA, 15 nM tritium labelled cAMP and varying amounts of inhibitors. Reactions were initiated by ….
Description: (§1) Reactions were initiated by addition of the cyclic nucleotide substrate, and reactions were allowed to proceed for 1 hr at room temperature before being terminated through mixing with 20 μL (0.2 mg) yttrium silicate SPA beads (PerkinElmer).

Assay [2] deals with Dual specificity calcium/calmodulin-dependent 3',5'-cyclic nucleotide phosphodiesterase 1C (Homo sapiens, UniProt Q14123). The assay is described as above.
Description: as §1

Usually IC50 stands for the concentration that gives 50% inhibition.

Sequence of Dual specificity calcium/calmodulin-dependent 3',5'-cyclic nucleotide phosphodiesterase 1A (P54750 whole entry): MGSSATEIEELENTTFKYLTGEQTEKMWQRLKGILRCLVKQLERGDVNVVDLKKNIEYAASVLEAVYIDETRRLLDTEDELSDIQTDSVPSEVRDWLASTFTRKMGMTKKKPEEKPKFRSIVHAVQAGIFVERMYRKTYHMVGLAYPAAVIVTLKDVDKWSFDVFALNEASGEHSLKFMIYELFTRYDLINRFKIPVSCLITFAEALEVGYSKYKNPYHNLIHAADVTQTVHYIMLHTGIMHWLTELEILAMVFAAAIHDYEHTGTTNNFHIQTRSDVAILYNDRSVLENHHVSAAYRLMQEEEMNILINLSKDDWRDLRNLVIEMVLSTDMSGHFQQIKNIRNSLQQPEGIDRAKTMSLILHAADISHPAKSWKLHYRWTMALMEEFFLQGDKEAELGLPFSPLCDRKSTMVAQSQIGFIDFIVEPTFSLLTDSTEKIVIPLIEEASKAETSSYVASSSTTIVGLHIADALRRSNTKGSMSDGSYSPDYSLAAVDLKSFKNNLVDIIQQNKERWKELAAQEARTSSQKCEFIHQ
Sequence of Dual specificity calcium/calmodulin-dependent 3',5'-cyclic nucleotide phosphodiesterase 1C (Q14123 whole entry): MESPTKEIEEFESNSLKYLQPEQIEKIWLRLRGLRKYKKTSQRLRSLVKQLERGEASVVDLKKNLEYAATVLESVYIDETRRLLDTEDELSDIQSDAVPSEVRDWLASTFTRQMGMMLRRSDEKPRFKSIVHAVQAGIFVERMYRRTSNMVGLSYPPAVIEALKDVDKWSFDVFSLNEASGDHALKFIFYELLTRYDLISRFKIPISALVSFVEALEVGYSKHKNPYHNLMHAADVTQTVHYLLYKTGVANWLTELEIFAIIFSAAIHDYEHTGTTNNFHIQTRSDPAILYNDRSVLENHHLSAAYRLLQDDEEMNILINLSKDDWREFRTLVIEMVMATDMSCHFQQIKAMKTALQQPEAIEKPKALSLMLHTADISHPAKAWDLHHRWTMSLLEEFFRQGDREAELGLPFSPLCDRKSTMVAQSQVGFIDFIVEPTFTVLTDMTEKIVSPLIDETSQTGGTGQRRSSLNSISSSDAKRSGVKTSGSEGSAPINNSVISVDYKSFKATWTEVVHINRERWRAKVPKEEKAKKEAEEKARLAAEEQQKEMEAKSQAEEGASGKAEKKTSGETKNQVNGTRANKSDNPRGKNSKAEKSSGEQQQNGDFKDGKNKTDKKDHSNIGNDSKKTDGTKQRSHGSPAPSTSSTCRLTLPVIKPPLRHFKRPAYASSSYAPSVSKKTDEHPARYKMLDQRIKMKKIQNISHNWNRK

For `CCOc1ncccc1-c1cc(NCc2cccn3c(C)nnc23)c2c(n1)c(C)nn2C(C)C`, the IC50 in assay [1] stood at 3 nM; in assay [2], 6.1 nM.
In the case of `CCOc1ncccc1-c1cc(NCc2cccc3ocnc23)c2c(n1)c(C)nn2C(C)C`, the IC50 came to 14 nM in assay [1] and 39 nM in assay [2].
